Data taken from patent US20230066011A1, “PYRROLOPYRIMIDINE DERIVATIVE, AND PHARMACEUTICAL COMPOSITION FOR PREVENTING OR TREATING PROTEIN KINASE-RELATED DISEASE COMPRISING SAME AS ACTIVE INGREDIENT” (VORONOI CO., LTD., priority 2019, published 2023).

Tests used:
human GST-DYRK1A = biological target: T1, human GST-DYRK1A (Homo sapiens, UniProt Q13627); test: GST-DYRK1A enzyme inhibition, ADP-Glo kinase assay; type: biochemical; settings: ATP 10 μM, GST-DYRK1A full length, read-out: DYRK1 IC50
T1 construct: purified human GST-DYRK1A (full length, Thermo Scientifics) enzyme; purchased Thermo Scientifics
Protocol: (§1) To evaluate an inhibitory activity of the compound according to the present invention against LRRK2, LRRK2 (G2019S), DYRK1, CLK1, and TTK kinases, experiments were performed as follows.
(§2) Each of the Example compounds was reacted with a purified human GST-DYRK1A (full length, Thermo Scientifics) enzyme to evaluate an ability to inhibit an enzyme using a method as described below. A composition of 40 mM Tris-HCl (pH 7.4), 20 mM MgCl2, 0.5 mg/mL BSA, and 50 μM DTT was used as a reaction buffer, and all reactions of test substances were performed in the reaction buffer. In the test, purified ATP (10 μM) and a specific substrate solution were reacted with a human GST-DYRK1A (full length, 10 ng) enzyme at 25° C. for an hour, and the enzyme activities were then determined using an in vitro ADP-Glo™ kinase assay (Promega). An enzyme-activity reaction solution, an ADP-Glo reaction solution, and an enzyme-ability detection solution were reacted at a ratio of 2:2:1 to measure a degree of inhibition of the enzyme activity with luminescence. The degree of inhibition of the enzyme activity according to the treatment concentration of each of the compounds was calculated based on the fluorescence of the enzyme activity of the solvent control which was not treated with the compound. In this case, the concentration of each of the compounds inhibiting 50% of the enzyme activity was determined to be an IC50 (nM) value, and the IC50 (nM) value of each of the compounds was determined from 3 sets of data, and calculated using Prism (Version 5.01; GraphPad) software.

human GST-CLK1 = biological target: T2, human GST-CLK1 (Homo sapiens, UniProt P49759); test: GST-CLK1 enzyme inhibition, ADP-Glo kinase assay; type: biochemical; settings: ATP 10 μM, GST-CLK1 129-end
T2 construct: purified human GST-CLK1 (129-end, SignalChem) enzyme; purchased SignalChem
Protocol: as §1
as §2, with “GST-CLK1 (129-end, SignalChem)” for “GST-DYRK1A (full length, Thermo Scientifics)”, “GST-CLK1 (129-end, 3” for “GST-DYRK1A (full length, 10”, “value. The” for “value, and the”

T2 sequence (P49759 129-484 limits assumed): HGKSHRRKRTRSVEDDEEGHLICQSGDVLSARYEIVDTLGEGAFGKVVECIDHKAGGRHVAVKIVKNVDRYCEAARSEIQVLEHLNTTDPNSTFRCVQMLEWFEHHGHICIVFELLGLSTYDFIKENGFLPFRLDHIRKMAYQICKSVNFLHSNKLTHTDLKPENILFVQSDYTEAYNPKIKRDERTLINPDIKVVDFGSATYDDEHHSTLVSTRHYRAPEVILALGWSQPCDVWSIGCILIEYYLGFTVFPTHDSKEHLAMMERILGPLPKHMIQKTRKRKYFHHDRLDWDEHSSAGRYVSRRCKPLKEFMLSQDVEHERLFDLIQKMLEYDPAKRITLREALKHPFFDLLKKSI

Structure (SMILES) | IC50 (human GST-DYRK1A) [µM] | IC50 (human GST-CLK1) [µM]
CCCNc1nc(Nc2ccc(C(=O)N3CCN(C4COC4)CC3)c3c2OCCO3)nc2[nH]cc(C#N)c12 [Example 284, 2-((8-(4-(oxetan-3-yl)piperazine-1-carbonyl)-2,3-dihydrobenzo[b] [1,4]dioxin-5-yl)amino)-4-(propylamino)-7H-pyrrolo[2,3-d]pyrimidine-5-carbonitrile] | 0.301 to 1 | < 0.1
COc1cc(P(C)(C)=O)ccc1Nc1nc(NC2CCCC2)c2c(C#N)c[nH]c2n1 [Example 269, 4-(cyclopentylamino)-2-((4-(dimethylphosphoryl)-2-methoxyphenyl)amino)-7H-pyrrolo[2,3-d]pyrimidine-5-carbonitrile] | 0.301 to 1 | 0.101 to 0.3
COc1cc(P2(=O)CCN(C3CC3)CC2)ccc1Nc1nc(NC2CCOCC2)c2c(C#N)c[nH]c2n1 [Example 302, 2-((4-(1-cyclopropyl-4-oxido-1,4-azaphosphinan-4-yl)-2-methoxyphenyl)a-mino)-4-((tetrahydro-2H-pyran-4-yl)amino)-7H-pyrrolo[2,3-d]pyrimidine-5-carbonitrile] | 0.301 to 1 | 0.301 to 1
CC[C@H](C)Nc1nc(Nc2ccc(S(=O)(=O)N3CCOCC3)cc2OC)nc2[nH]cc(C(F)(F)F)c12 [Example 379, (S)-N^4-(sec-butyl)-N^2-(2-methoxy-4-(morpholino-sulfonyl)phenyl)-5-(trifluoromethyl)-7H-pyrrolo[2,3-d]pyrimidine-2,4-diamine] | 0.301 to 1 | 0.301 to 1
COc1cc(P2(=O)CCN(C3CC3)CC2)ccc1Nc1nc(NCC2CCCC2)c2c(C#N)c[nH]c2n1 [Example 308, 4-((cyclo-pentylmeth-yl)amino)-2-((4-(1-cyclopropyl-4-oxido-1,4-azaphosphinan-4-yl)-2-methoxyphenyl)a-mino)-7H-pyrrolo[2,3-d]pyrimidine-5-carbonitrile] | 0.301 to 1 | 0.301 to 1
COc1cc(P(C)(C)=O)ccc1Nc1nc(NC(C)C)c2c(C#N)c[nH]c2n1 [Example 114, 2-((4-(dimethylphosphoryl)-2-methoxyphenyl)amino)-4-(isopropylamino)-7H-pyrrolo[2,3-d]pyrimidine-5-carbonitrile] | 0.301 to 1 | 0.301 to 1
CC[C@@H](C)Nc1nc(Nc2ccc(S(=O)(=O)N3CCC(N4CCOCC4)CC3)cc2OC)nc2[nH]ccc12 [Example 15, (R)-N^4-(sec-butyl)-N^2-(2-methoxy-4-((4-morpholinopiperidin-1-yl)sulfonyl)phenyl)-7H-pyrrolo[2,3-d]pyrimidine-2,4-diamine] | 0.301 to 1 | 0.301 to 1
N#Cc1c[nH]c2nc(Nc3ccc(C(=O)N4CCN(C5COC5)CC4)c4c3OCCO4)nc(NCC3CCC3)c12 [Example 318, 4-((cyclo-butylmethyl)amino)-2-((8-(4-(oxetan-3-yl)piperazine-1-carbonyl)-2,3-dihydrobenzo[b] [1,4]dioxin-5-yl)amino)-7H-pyrrolo[2,3-d]pyrimidine-5-carbonitrile] | 0.301 to 1 | 0.101 to 0.3
O=C(c1ccc(Nc2nc(NCC3CCCC3)c3c(C(F)(F)F)c[nH]c3n2)c2c1OCCO2)N1CCOCC1 [Example 205, (8-((4-((cyclopentylmethyl)amino)-5-(trifluoromethyl)-7H-pyrrolo[2,3-d]pyrimidin-2-yl)amino)-2,3-dihydrobenzo[b][1,4]dioxin-5-yl)(morpholino)methanone] | 0.301 to 1 | 0.301 to 1
CCNc1nc(Nc2ccc(C(=O)N3CCC(N4CCOCC4)CC3)c3c2OCO3)nc2[nH]cc(C#N)c12 [Example 264, 4-(ethyalmino)-2-((7-(4-morpholino-1-carbonyl)benzo[d][1,3]dioxol-4-yl)amino)-7H-pyrrolo[2,3-d]pyrimidine-5-carbonitrile] | 0.101 to 0.3 | < 0.1
N#Cc1c[nH]c2nc(Nc3ccc(C(=O)N4CCN(C5COC5)CC4)c4c3OCCO4)nc(NC3CC3)c12 [Example 287, 4-(cyclo-propylamino)-2-((8-(4-(oxetan-3-yl)piperazine-1-carbonyl)-2,3-dihydrobenzo[b] [1,4]dioxin-5-yl)amino)-7H-pyrrolo[2,3-d]pyrimidine-5-carbonitrile] | 0.301 to 1 | < 0.1
CCNc1nc(Nc2ccc(C(=O)N3CCN(C4COC4)CC3)c3c2OCCO3)nc2[nH]cc(C#N)c12 [Example 281, 4-(ethylamino)-2-((8-(4-(oxetan-3-yl)piperazine-1-carobnyl)-2,3-dihydrobenzo[b][1,4]dioxin-5-yl)amino)-7H-pyrrolo[2,3-d]pyrimidine-5-carbonitrile] | 0.101 to 0.3 | < 0.1
CC(C)CNc1nc(Nc2ccc(C(=O)N3CCC(N4CCOCC4)CC3)c3c2OCCO3)nc2[nH]cc(C(F)(F)F)c12 [Example 199, (8-((4-(isobutylamino)-5-(trifluoromethyl)-7H-pyrrolo[2,3-d]pyrimidin-2-yl)amino)-2,3-dihydrobenzo[b][1,4]dioxin-5-yl)(4-morpholinopiperidin-1-yl)methanone] | 0.301 to 1 | < 0.1
CC[C@H](C)Nc1nc(Nc2ccc(S(C)(=O)=O)cc2OC)nc2[nH]ccc12 [Example 18, (S)-N^4-(sec-butyl)-N^2-(2-methoxy-4-(4-methylsulfonyl)phenyl)-7H-pyrrolo[2,3-d]pyrimidine-2,4-diamine] | 0.301 to 1 | 0.301 to 1
COCCNc1nc(Nc2ccc(P3(=O)CCN(C4COC4)CC3)cc2OC)nc2[nH]cc(C#N)c12 [Example 312, 2-((2-methoxy-4-(1-(oxetan-3-yl)-4-oxido-1,4-azaphosphinan-4-yl)phenyl)amino)-4-((2-methoxyethyl)amino)-7H-pyrrolo[2,3-d]pyrimidine-5-carbonitrile] | 0.101 to 0.3 | < 0.1
CCCNc1nc(Nc2ccc(C(=O)N3CCOCC3)c3c2OCC3)nc2[nH]cc(C#N)c12 [Example 348, 2-((4-(morpholine-4-carbonyl)-2,3-dihydrobenzo-furan-7-yl)amino)-4-(propylamino)-7H-pyrrolo[2,3-d]pyrimidine-5-carbonitrile] | 0.301 to 1 | < 0.1
CC(C)CNc1nc(Nc2ccc(C(=O)N3CC(CO)(CO)C3)c3c2OCCO3)nc2[nH]cc(C#N)c12 [Example 328, 2-((8-(3,3-bis (hydroxymethyl)azetidine-1-carbonyl)-2,3-dihydrobenzo[b] [1,4]dioxin-5-yl)amino)-4-(isobutylamino)-7H-pyrrolo[2,3-d]pyrimidine-5-carbonitrile] | 0.301 to 1 | < 0.1
COc1cc(P2(=O)CCN(C3CC3)CC2)ccc1Nc1nc(NCC(C)C)c2c(C#N)c[nH]c2n1 [Example 290, 2-((4-(1-cyclopropyl-4-oxido-1,4-azaphosphinan-4-yl)-2-methoxyphenyl)a-mino)-4-(isobutylamino)-7H-pyrrolo[2,3-d]pyrimidine-5-carbonitrile] | 0.301 to 1 | 0.301 to 1
COc1cc(S(C)(=O)=O)ccc1Nc1nc(N[C@@H]2CCOC2)c2cc[nH]c2n1 [Example 28, (R)-N^2-(2-methoxy-4-(methylsulfonyl)phenyl)-N^4-(tetrahydrofuran-3-yl)-7H-pyrrolo[2,3-d]pyrimidine-2,4-diamine] | 0.301 to 1 | 0.301 to 1
O=C(c1ccc(Nc2nc(NCC3CCC3)c3c(C(F)(F)F)c[nH]c3n2)c2c1OCCO2)N1CCOCC1 [Example 193, (8-((4-((cyclobutylmethyl)amino)-5-(trifluoromethyl)-7H-pyrrolo[2,3-d]pyrimidin-2-yl)amino)-2,3-dihydrobenzo[b][1,4]dioxin-5-yl)(morpholino)methanone] | 0.301 to 1 | 0.301 to 1
CC(C)CNc1nc(Nc2ccc(C(=O)N3CCOCC3)c3c2OCC3)nc2[nH]cc(C#N)c12 [Example 350, 4-(isobutyl-amino)-2-((4-(morpholine-4-carbonyl)-2,3-dihydrobenzo-furan-7-yl)amino)-7H-pyrrolo[2,3-d]pyrimidine-5-carbonitrile] | 0.301 to 1 | < 0.1
